Experimental data reported in article PMC10945555, “Improving Activity of New Arylurea Agents against Multidrug-Resistant and Biofilm-Producing Staphylococcus epidermidis” (ACS Medicinal Chemistry Letters, 2024).
In brackets after ≈: the same amount, converted by molar mass. Like-named read-outs stand apart in the source and are kept apart here.

Experiments:
[1] = tested on: Staphylococcus aureus ATCC BAA-976; assay: MIC, broth microdilution, MDR/BPSA reference strain; format: cell-based; conditions: ATCCBAA976; Staphylococcus aureus ATCC BAA-976; read-out: MIC MDR/BPSA
Text: These strains included susceptible, multidrug-resistant, and biofilm-producing strains of S. epidermidis and S. aureus (MSSE, MDR/BPSE, and MDR/BPSA, respectively). The cornerstone antibiotic linezolid served as a positive control (Table 1). The impact of structural modifications at the aryloxy fragment and the aromatic moiety bound to the propyl linker on the inhibitory activity was initially investigated. […] Further optimization focused on evaluating the impact of the type of substituent and its position on the arylsulfonamide fragment’s activity.
(§1) 2 Biological assay protocols
(§2) Microbiological tests were carried out under aseptic conditions in a laminar chamber of the 2nd […]
(§3) (BioTectum 1.2, Alchem Poland). The assessment of antimicrobial activity was carried out for final compounds in the form of free bases, soluble in DMSO (Merck, Germany), at the initial […]
(§4) concentration of 1 mg/mL. […]
were provided by Cayman Chemical, USA.
The activity of all newly synthesized compounds was tested in vitro on a panel of selected reference strains from the American Type Culture Collection (ATCC) of Gram-positive […]
(§5) 2.2 Effect of evaluated compounds on planktonic cells
(§6) The susceptibility of three reference bacterial strains (Staphylococcus epidermidis ATCC […]
(§7) Table S1) and 81 clinical MDR S. epidermidis (Table S2) to the tested compounds was assessed by determining the MIC value (Minimal Inhibitory Concentration) by microdilution in a liquid medium in 96-well flat-bottom cell culture plates (Nest Biotechnology Scientific, USA). The antibacterial properties of the compo unds were tested in the concentration range from 50 µg/mL to 0.1 µg/mL by making a series of double dilutions of the compound in liquid Mueller -Hinton II Broth Cation Adjusted (MHB II, BBL TM, USA) according to the European Committee on […]
(§8) Antimicrobial Susceptibility Testing guidelines (EUCAST).2,3 The determinations were performed twice. The MIC50 and MIC90 values were determined for each of the tested

[2] = tested on: clinical MDR Staphylococcus epidermidis isolates; assay: MIC, broth microdilution, 81 clinical MDR strains; format: cell-based; conditions: Staphylococcus epidermidis
Description: as §1, §2, §3, §4
were provided by Cayman Chemical, USA. […]
The antibacterial activity of selected compounds was also tested on a panel of 81 unrelated, multidrug -resistant clinical strains of Staphylococcus epidermidis from the own collection of the Department of Pharmaceutical Microbiology of the Jagiellonian University Medical College.
as §5, §6, §7, §8

## O=S(=O)(NC1CCN(CCC(Oc2ccc(C(F)(F)F)cc2)c2cccs2)CC1)c1cccc(C(F)(F)F)c1 (stereo not shown) [Compound 21]
[1]
  MIC: 50 µg/mL (≈ 84.4 µM)
[2]; clinical strain 1 (Table S2), read-out: MIC
  MIC: 0.8 µg/mL (≈ 1.35 µM)
[2]; clinical strain 2 (Table S2), read-out: MIC
  MIC: 6.25 µg/mL (≈ 10.5 µM)
[2]; clinical strain 3 (Table S2), read-out: MIC
  MIC: 6.25 µg/mL (≈ 10.5 µM)
[2]; clinical strain 4 (Table S2), read-out: MIC
  MIC: 50 µg/mL (≈ 84.4 µM)
[2]; clinical strain 5 (Table S2), read-out: MIC
  MIC: 1.6 µg/mL (≈ 2.7 µM)
[2]; clinical strain 6 (Table S2), read-out: MIC
  MIC: 50 µg/mL (≈ 84.4 µM)
[2]; clinical strain 7 (Table S2), read-out: MIC
  MIC: 50 µg/mL (≈ 84.4 µM)
[2]; clinical strain 8 (Table S2), read-out: MIC
  MIC: 6.25 µg/mL (≈ 10.5 µM)
[2]; clinical strain 9 (Table S2), read-out: MIC
  MIC: 3.12 µg/mL (≈ 5.27 µM)
[2]; clinical strain 10 (Table S2), read-out: MIC
  MIC: 50 µg/mL (≈ 84.4 µM)
[2]; clinical strain 11 (Table S2), read-out: MIC
  MIC: 6.25 µg/mL (≈ 10.5 µM)
[2]; clinical strain 12 (Table S2), read-out: MIC
  MIC: 50 µg/mL (≈ 84.4 µM)
[2]; clinical strain 13 (Table S2), read-out: MIC
  MIC: 50 µg/mL (≈ 84.4 µM)
[2]; clinical strain 14 (Table S2), read-out: MIC
  MIC: 50 µg/mL (≈ 84.4 µM)
[2]; clinical strain 15 (Table S2), read-out: MIC
  MIC: 50 µg/mL (≈ 84.4 µM)
[2]; clinical strain 16 (Table S2), read-out: MIC
  MIC: 50 µg/mL (≈ 84.4 µM)
[2]; clinical strain 17 (Table S2), read-out: MIC
  MIC: 50 µg/mL (≈ 84.4 µM)
[2]; clinical strain 18 (Table S2), read-out: MIC
  MIC: 50 µg/mL (≈ 84.4 µM)
[2]; clinical strain 19 (Table S2), read-out: MIC
  MIC: 50 µg/mL (≈ 84.4 µM)
[2]; clinical strain 20 (Table S2), read-out: MIC
  MIC: 3.12 µg/mL (≈ 5.27 µM)
[2]; clinical strain 21 (Table S2), read-out: MIC
  MIC: 3.12 µg/mL (≈ 5.27 µM)
[2]; clinical strain 22 (Table S2), read-out: MIC
  MIC: 6.25 µg/mL (≈ 10.5 µM)
[2]; clinical strain 23 (Table S2), read-out: MIC
  MIC: 0.8 µg/mL (≈ 1.35 µM)
[2]; clinical strain 24 (Table S2), read-out: MIC
  MIC: 3.12 µg/mL (≈ 5.27 µM)
[2]; clinical strain 25 (Table S2), read-out: MIC
  MIC: 50 µg/mL (≈ 84.4 µM)
[2]; clinical strain 26 (Table S2), read-out: MIC
  MIC: 50 µg/mL (≈ 84.4 µM)
[2]; clinical strain 27 (Table S2), read-out: MIC
  MIC: 0.8 µg/mL (≈ 1.35 µM)
[2]; clinical strain 28 (Table S2), read-out: MIC
  MIC: 50 µg/mL (≈ 84.4 µM)
[2]; clinical strain 29 (Table S2), read-out: MIC
  MIC: 50 µg/mL (≈ 84.4 µM)
[2]; clinical strain 30 (Table S2), read-out: MIC
  MIC: 50 µg/mL (≈ 84.4 µM)
[2]; clinical strain 31 (Table S2), read-out: MIC
  MIC: 50 µg/mL (≈ 84.4 µM)
[2]; clinical strain 32 (Table S2), read-out: MIC
  MIC: 50 µg/mL (≈ 84.4 µM)
[2]; clinical strain 33 (Table S2), read-out: MIC
  MIC: 50 µg/mL (≈ 84.4 µM)
[2]; clinical strain 34 (Table S2), read-out: MIC
  MIC: 50 µg/mL (≈ 84.4 µM)
[2]; clinical strain 35 (Table S2), read-out: MIC
  MIC: 25 µg/mL (≈ 42.2 µM)
[2]; clinical strain 36 (Table S2), read-out: MIC
  MIC: 50 µg/mL (≈ 84.4 µM)
[2]; clinical strain 37 (Table S2), read-out: MIC
  MIC: 50 µg/mL (≈ 84.4 µM)
[2]; clinical strain 38 (Table S2), read-out: MIC
  MIC: 50 µg/mL (≈ 84.4 µM)
[2]; clinical strain 39 (Table S2), read-out: MIC
  MIC: 50 µg/mL (≈ 84.4 µM)
[2]; clinical strain 40 (Table S2), read-out: MIC
  MIC: 50 µg/mL (≈ 84.4 µM)
[2]; clinical strain 41 (Table S2), read-out: MIC
  MIC: 50 µg/mL (≈ 84.4 µM)
[2]; clinical strain 42 (Table S2), read-out: MIC
  MIC: 6.25 µg/mL (≈ 10.5 µM)
[2]; clinical strain 43 (Table S2), read-out: MIC
  MIC: 6.25 µg/mL (≈ 10.5 µM)
[2]; clinical strain 44 (Table S2), read-out: MIC
  MIC: 50 µg/mL (≈ 84.4 µM)
[2]; clinical strain 45 (Table S2), read-out: MIC
  MIC: 50 µg/mL (≈ 84.4 µM)
[2]; clinical strain 46 (Table S2), read-out: MIC
  MIC: 50 µg/mL (≈ 84.4 µM)
[2]; clinical strain 47 (Table S2), read-out: MIC
  MIC: 50 µg/mL (≈ 84.4 µM)
[2]; clinical strain 48 (Table S2), read-out: MIC
  MIC: 50 µg/mL (≈ 84.4 µM)
[2]; clinical strain 49 (Table S2), read-out: MIC
  MIC: 50 µg/mL (≈ 84.4 µM)
[2]; clinical strain 50 (Table S2), read-out: MIC
  MIC: 50 µg/mL (≈ 84.4 µM)
[2]; clinical strain 51 (Table S2), read-out: MIC
  MIC: 50 µg/mL (≈ 84.4 µM)
[2]; clinical strain 52 (Table S2), read-out: MIC
  MIC: 50 µg/mL (≈ 84.4 µM)
[2]; clinical strain 53 (Table S2), read-out: MIC
  MIC: 50 µg/mL (≈ 84.4 µM)
[2]; clinical strain 54 (Table S2), read-out: MIC
  MIC: 50 µg/mL (≈ 84.4 µM)
[2]; clinical strain 55 (Table S2), read-out: MIC
  MIC: 50 µg/mL (≈ 84.4 µM)
[2]; clinical strain 56 (Table S2), read-out: MIC
  MIC: 50 µg/mL (≈ 84.4 µM)
[2]; clinical strain 57 (Table S2), read-out: MIC
  MIC: 50 µg/mL (≈ 84.4 µM)
[2]; clinical strain 58 (Table S2), read-out: MIC
  MIC: 50 µg/mL (≈ 84.4 µM)
[2]; clinical strain 59 (Table S2), read-out: MIC
  MIC: 50 µg/mL (≈ 84.4 µM)
[2]; clinical strain 60 (Table S2), read-out: MIC
  MIC: 50 µg/mL (≈ 84.4 µM)
[2]; clinical strain 61 (Table S2), read-out: MIC
  MIC: 50 µg/mL (≈ 84.4 µM)
[2]; clinical strain 62 (Table S2), read-out: MIC
  MIC: 50 µg/mL (≈ 84.4 µM)
[2]; clinical strain 63 (Table S2), read-out: MIC
  MIC: 50 µg/mL (≈ 84.4 µM)
[2]; clinical strain 64 (Table S2), read-out: MIC
  MIC: 50 µg/mL (≈ 84.4 µM)
[2]; clinical strain 65 (Table S2), read-out: MIC
  MIC: 3.12 µg/mL (≈ 5.27 µM)
[2]; clinical strain 66 (Table S2), read-out: MIC
  MIC: 3.12 µg/mL (≈ 5.27 µM)
[2]; clinical strain 67 (Table S2), read-out: MIC
  MIC: 50 µg/mL (≈ 84.4 µM)
[2]; clinical strain 68 (Table S2), read-out: MIC
  MIC: 50 µg/mL (≈ 84.4 µM)
[2]; clinical strain 69 (Table S2), read-out: MIC
  MIC: 50 µg/mL (≈ 84.4 µM)
[2]; clinical strain 70 (Table S2), read-out: MIC
  MIC: 50 µg/mL (≈ 84.4 µM)
[2]; clinical strain 71 (Table S2), read-out: MIC
  MIC: 50 µg/mL (≈ 84.4 µM)
[2]; clinical strain 72 (Table S2), read-out: MIC
  MIC: 50 µg/mL (≈ 84.4 µM)
[2]; clinical strain 73 (Table S2), read-out: MIC
  MIC: 50 µg/mL (≈ 84.4 µM)
[2]; clinical strain 74 (Table S2), read-out: MIC
  MIC: 50 µg/mL (≈ 84.4 µM)
[2]; clinical strain 75 (Table S2), read-out: MIC
  MIC: 50 µg/mL (≈ 84.4 µM)
[2]; clinical strain 76 (Table S2), read-out: MIC
  MIC: 50 µg/mL (≈ 84.4 µM)
[2]; clinical strain 77 (Table S2), read-out: MIC
  MIC: 1.6 µg/mL (≈ 2.7 µM)
[2]; clinical strain 78 (Table S2), read-out: MIC
  MIC: 50 µg/mL (≈ 84.4 µM)
[2]; clinical strain 79 (Table S2), read-out: MIC
  MIC: 50 µg/mL (≈ 84.4 µM)
[2]; clinical strain 80 (Table S2), read-out: MIC
  MIC: 50 µg/mL (≈ 84.4 µM)
[2]; clinical strain 81 (Table S2), read-out: MIC
  MIC: 50 µg/mL (≈ 84.4 µM)
[2]; mean of MIC values against clinical MDR-SE isolates, read-out: mean MIC
  MIC: 39.4 µg/mL (≈ 66.5 µM)
[2]; 81 clinical strains, concentration inhibiting growth of 50% clinical isolates
  MIC50: 50 µg/mL (≈ 84.4 µM)
[2]; 81 clinical strains, concentration inhibiting growth of 90% of clinical isolates
  MIC90: 50 µg/mL (≈ 84.4 µM)
